Test results as given in ChEMBL document CHEMBL5365461, “Degradation of Cyclin-Dependent Kinase 9/Cyclin T1 by Optimized Microtubule-Associated Protein 1 Light Chain 3 Beta-Recruiting Coumarin Analogs” (J Med Chem, 2023).
Active and inactive are the calls of the source. The calls are words filed in the database; no cut-off is given here.

Experiments:
[1] = target: Cyclin-dependent kinase 9 (Homo sapiens) (UniProt P50750); assay: (§1) Inhibition of GST-fused human full-length CDK9 (1 to 372(end) residues)/N-terminal GST-fused His-tagged human full-length CyclinT1 (1 to 726(end) residues) expressed in baculovirus expression system at 100 nM using CDK7/9 tide as substrate incubated for 120 mins in presence of ATP by ADP-Glo Kinase assay relative to control
[2] = target: Cyclin-dependent kinase 9 (Homo sapiens) (UniProt P50750); assay: as §1, with “10” for “100”
[3] = test system: U2932; assay: Cytotoxicity against human U2932 cells assessed as inhibition of cell growth measured after 72 hrs by CCK-8 assay; assay type: functional, cell-based; details: U2932, 72 h
[4] = target: CDK9/cyclin T1 (Homo sapiens) (UniProt O60563+P50750); assay: Induction of CDK9/CyclinT1 degradation in human U2932 cells at 100 nM measured after 24 hrs by immunoblotting analysis; assay type: cell-based
[5] = test system: U2932; assay: Induction of apoptosis in human U2932 cells assessed as late apoptotic cells at 1000 nM incubated for 24 hrs by AnnexinV-FITC/PI staining based flow cytometry analysis (reference value: 5.95%); assay type: functional
[6] = test system: U2932; assay: Induction of apoptosis in human U2932 cells assessed as early apoptotic cells at 1000 nM incubated for 24 hrs by AnnexinV-FITC/PI staining based flow cytometry analysis (reference value: 6.20%); assay type: functional
[7] = test system: U2932; assay: Induction of apoptosis in human U2932 cells assessed as necrotic cells at 1000 nM incubated for 24 hrs by AnnexinV-FITC/PI staining based flow cytometry analysis (reference value: 0.92%); assay type: functional
[8] = test system: U2932; assay: Induction of apoptosis in human U2932 cells assessed as viable cells at 1000 nM incubated for 24 hrs by AnnexinV-FITC/PI staining based flow cytometry analysis (reference value: 86.9%); assay type: functional; details: read-out: Activity

Sequence of Cyclin-dependent kinase 9 (Homo sapiens) (P50750 whole entry, the tested form may be a part): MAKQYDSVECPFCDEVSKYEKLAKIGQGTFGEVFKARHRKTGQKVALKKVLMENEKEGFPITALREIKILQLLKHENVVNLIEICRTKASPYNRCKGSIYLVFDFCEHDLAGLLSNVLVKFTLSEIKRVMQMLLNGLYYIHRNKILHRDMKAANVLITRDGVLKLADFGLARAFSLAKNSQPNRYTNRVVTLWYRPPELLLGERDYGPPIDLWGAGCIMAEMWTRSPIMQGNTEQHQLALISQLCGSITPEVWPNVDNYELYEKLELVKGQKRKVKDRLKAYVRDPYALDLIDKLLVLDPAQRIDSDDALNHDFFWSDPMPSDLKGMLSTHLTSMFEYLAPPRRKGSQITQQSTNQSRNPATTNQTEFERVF

Compound | inhibition [1] [%] | inhibition [2] [%] | Activity [4] | IC50 [3] [nM] | Activity [5] [%] | Activity [6] [%] | Activity [7] [%] | viability at 1 µM [8] [%]
CC(C)(C)c1cnc(CSc2cnc(NC(=O)C3CCN(CCCOc4cc(O)cc5oc(=O)cc(-c6ccccc6)c45)CC3)s2)o1 | 51 | -8 |  | 624 |  |  |  | 
CC(C)(C)c1cnc(CSc2cnc(NC(=O)C3CCN(CCCOc4cc(O)c5ccc(=O)oc5c4)CC3)s2)o1 | 78 | 45 | Active | 157 |  |  |  | 
CC(C)(C)c1cnc(CSc2cnc(NC(=O)C3CCN(CCCOc4cccc5oc(=O)cc(-c6ccccc6)c45)CC3)s2)o1 | 36 | -8 |  | 534 |  |  |  | 
COc1ccc(-c2cc(=O)oc3cc(OCCCN4CCC(C(=O)Nc5ncc(SCc6ncc(C(C)(C)C)o6)s5)CC4)cc(O)c23)cc1 | 83 | 33 | Active | 104 |  |  |  | 
CC(C)(C)c1cnc(CSc2cnc(NC(=O)C3CCN(CC(=O)NCCOCCOCCOCCNc4cccc5c4C(=O)N(C4CCC(=O)NC4=O)C5=O)CC3)s2)o1 (centres undefined) | 39 | 4 | Active | 306 | 22.3 | 8.93 | 1.55 | 67.2
CC(C)(C)c1cnc(CSc2cnc(NC(=O)C3CCN(CCCOc4ccc5c(-c6ccccc6)cc(=O)oc5c4)CC3)s2)o1 | 69 | 6 |  | 320 |  |  |  | 
CC(C)(C)c1cnc(CSc2cnc(NC(=O)C3CCN(CCCOc4cc(O)c5c(-c6ccncc6)cc(=O)oc5c4)CC3)s2)o1 | 69 | 15 | Active | 192 |  |  |  | 
CC(C)(C)c1cnc(CSc2cnc(NC(=O)C3CCN(CCCOc4cc(O)cc5oc(=O)cc(-c6ccncc6)c45)CC3)s2)o1 | 55 |  |  | 484 |  |  |  | 
CC(C)(C)c1cnc(CSc2cnc(NC(=O)C3CCN(CCCOc4cc(O)cc5oc(=O)cc(-c6ccc(F)cc6)c45)CC3)s2)o1 | 68 |  |  | 346 |  |  |  | 
COc1ccc(-c2cc(=O)oc3cc(O)cc(OCCCN4CCC(C(=O)Nc5ncc(SCc6ncc(C(C)(C)C)o6)s5)CC4)c23)cc1 | 61 | -5 |  | 604 |  |  |  | 
CC(C)(C)c1cnc(CSc2cnc(NC(=O)C3CCN(CCCOc4cc(O)c5c(-c6ccc(F)cc6)cc(=O)oc5c4)CC3)s2)o1 | 80 |  | Active | 124 |  |  |  | 
CC(C)(C)c1cnc(CSc2cnc(NC(=O)C3CCN(CCCOc4cc(O)c5c(-c6ccccc6)cc(=O)oc5c4)CC3)s2)o1 | 86 | -4 | Active | 120 |  |  |  | 

The next lines start with results.

inhibition [1] [%] | inhibition [2] [%] | Activity [4] | Compound | IC50 [3] [nM] | Activity [5] [%] | Activity [6] [%] | Activity [7] [%] | viability at 1 µM [8] [%]
63 | 5 |  | Cc1cc(=O)oc2cc(O)cc(OCCOCCN3CCC(C(=O)Nc4ncc(SCc5ncc(C(C)(C)C)o5)s4)CC3)c12 | 180 |  |  |  | 
55 |  | Active | Cc1cc(=O)oc2cc(O)cc(OCCCN3CCC(C(=O)Nc4ncc(SCc5ncc(C(C)(C)C)o5)s4)CC3)c12 | 157 |  |  |  | 
52 | -3 | Active | CC(C)(C)c1cnc(CSc2cnc(NC(=O)C3CCN(CCCOc4cc(O)cc5oc(=O)ccc45)CC3)s2)o1 | 125 |  |  |  | 
73 | 23 |  | Cc1cc(=O)oc2cc(O)cc(OCCN3CCC(C(=O)Nc4ncc(SCc5ncc(C(C)(C)C)o5)s4)CC3)c12 | 424 |  |  |  | 
69 | 37 |  | Cc1cc(=O)oc2cc(OCCN3CCC(C(=O)Nc4ncc(SCc5ncc(C(C)(C)C)o5)s4)CC3)cc(O)c12 | 155 |  |  |  | 
57 | 2 |  | Cc1cc(=O)oc2cc(OCCCCCN3CCC(C(=O)Nc4ncc(SCc5ncc(C(C)(C)C)o5)s4)CC3)cc(O)c12 | 98 |  |  |  | 
71 | 28 |  | Cc1cc(=O)oc2cc(OCCOCCN3CCC(C(=O)Nc4ncc(SCc5ncc(C(C)(C)C)o5)s4)CC3)cc(O)c12 | 145 |  |  |  | 
83 | 24 |  | CC(C)(C)c1cnc(CSc2cnc(NC(=O)C3CCN(CCCCCOc4cc(O)cc5oc(=O)ccc45)CC3)s2)o1 | 109 |  |  |  | 
79 | 9 |  | Cc1cc(=O)oc2cc(O)cc(OCCCCN3CCC(C(=O)Nc4ncc(SCc5ncc(C(C)(C)C)o5)s4)CC3)c12 | 142 |  |  |  | 
73 | 26 |  | Cc1cc(=O)oc2cc(OCCCCN3CCC(C(=O)Nc4ncc(SCc5ncc(C(C)(C)C)o5)s4)CC3)cc(O)c12 | 133 |  |  |  | 
